According to patent publication US20200223837A1, “BENZOFURAN AMIDES AND HETEROAROMATIC ANALOGUES THEREOF FOR USE IN THERAPY” (European Molecular Biology Laboratory, priority 2017, published 2020):
Like-named read-outs stand apart in the source and are kept apart here.

What was measured:
[1] = tested on: A549 lung adenocarcinoma cells; assay: Growth of A549 cells in nude mice (xenograft); type: in vivo; conditions: 3 mg/kg and 10 mg/kg i.p. QD
Description: The following test can be conducted for determining, if administration of compounds influences the growth of A549 cells in nude mice, in comparison to solvent only and to carboplatin, a standard of care. An i.p. route of administration is evaluated at 10 and 3 mg/kg delivered i.p., q.d. and compared with solvent control and carboplatin at 75 mg/kg delivered Q7D4 ip. Eight mice are used per study condition.
Compounds are supplied as a dry powder. Each compound is first dissolved in DMSO to yield an appropriate concentration then mixed with 9 volumes of a previously prepared solution of Cremophor-EL: 5% Mannitol (1:8, v/v) warmed to 37° C. while vigorously vortexing. This mixture is sonicated in an ultrasonic bath heated to 40° C. for 15-20 min. The formulations are stable for 24 hours at ambient temperature. A working formulation batch is prepared immediately prior to the in vivo study. A dose volume of 5 ml/kg is used for each concentration and route of administration.
NMRI-nu/nu nude mice are injected subcutaneously in one flank with 5×10^6 A549 cells in 200 μl of DMEM prepared by trypsinizing an exponentially growing culture of cells. Tumours are allowed to develop to an approximate volume of 100 mm^3, (approximately one week after initiation) and thereafter treatment commenced. Body weights and tumour volume are determined every two days. […]

[2] = tested on: ProQinase 100 cancer cell-line panel; assay: Growth inhibition of the ProQinase 100 cancer cell-line panel; type: cell-based
Description: HeLa, A549 and HCT116 cells were grown in high-glucose Dulbecco's Modified Eagle's Medium (DMEM, Sigma)+10% FBS+1% penicillin and streptomycin+1% L-glutamine, at 37° C. with 5% CO2 and 95% humidity. Cytotoxic screening of the ProQinase panel of 100 cell-lines was performed by ProQinase (Freiburg, Germany). Patient derived CLL isolates were prepared and screened as described by Dietrich et al. (S. Dietrich et al., J Clin Invest, 2018, 128(1), 427-445). Cell viability was determined after 48 hours using the ATP-based CellTiter Glo assay (Promega). Luminescence was measured with a Tecan Infinite F200 Microplate Reader (Tecan Group AG) and with an integration time of 0.2 seconds per well.
The ProQinase 100 cell-line panel is a cell proliferation assay service of ProQinase comprising the EC50 determination of a test compound against a defined panel of 100 cancer cell lines from 18 different tissue types.
The inhibitory growth effect of the compound of example 85 on the ProQinase 100 cancer cell-line panel was evaluated by ProQinase.

`Cc1cnc(NC(=O)Cc2coc3cc4c(cc23)CCC4)s1` [Example 64, 2-(6,7-Dihydro-5H-cyclopenta[f]benzofuran-3-yl)-N-(5-methylthiazol-2-yl)acetamide] was tested, and the “body weight or signs of toxicity” value [1] was “No significant changes in body weight or signs of toxicity were apparent” and the “growth of A549 lung adenocarcinoma cells in nude mice” value ([1]; performed as well as carboplatin) was “substantially prevented the growth”.
`O=C(Cc1coc2c(Cl)c(Cl)ccc12)Nc1ncc(C(F)(F)F)s1` [Example 85, 2-(6,7-Dichlorobenzofuran-3-yl)-N-[5-(trifluoromethyl)thiazol-2-yl]acetamide] was tested, and the EC50 ([2]; median over 100 cell-lines, read-out: median growth inhibition EC50) was 3.2 µM, the “cell-lines whose proliferation is inhibited” value ([2]; of 100 cell-lines) was 100 and the EC50 ([2]; range over all 100 cell-lines, read-out: growth inhibition EC50) was 0.58 to 16 µM.
